Test results from PubChem BioAssay AID200 (DTP/NCI, 2004).
Where “and” joins values, the source holds several entries; their conditions need not be identical. Equal entries are not always repeated. Toxic doses and inconclusive results are not listed.

Test system: B6C3F1 mice, B16 melanoma ip, median survival T/C
Assay: NCI In Vivo Anticancer Drug Screen. Data for tumor model B16 Melanoma (intraperitoneal) in B6C3F1 mice
Conditions: endpoint: median survival time, higher = longer survival
Procedure, shortened: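 Mice bearing transplanted tumor were dosed with compound or vehicle, and survival was recorded. Activity is expressed as the treated-group measurement (T) divided by the vehicle control measurement (C).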

[1] = dose: 25.0 mg/kg/injection, schedule: Q01DX009 (ip), vehicle: saline
[2] = dose: 50.0 mg/kg/injection, schedule: Q01DX009 (ip), vehicle: saline
[3] = dose: 100.0 mg/kg/injection, schedule: Q01DX009 (ip), vehicle: saline
[4] = dose: 200.0 mg/kg/injection, schedule: Q01DX009 (ip), vehicle: saline
[5] = dose: 5.0 micrograms/kg/injection, schedule: Q01DX009 (ip), vehicle: saline + alcohol
[6] = dose: 20.0 micrograms/kg/injection, schedule: Q01DX009 (ip), vehicle: saline + alcohol
[7] = dose: 50.0 mg/kg/injection, schedule: Q01DX009 (ip), vehicle: saline with Tween-80
[8] = dose: 100.0 mg/kg/injection, schedule: Q01DX009 (ip), vehicle: saline with Tween-80
[9] = dose: 200.0 mg/kg/injection, schedule: Q01DX009 (ip), vehicle: saline with Tween-80
[10] = dose: 400.0 mg/kg/injection, schedule: Q01DX009 (ip), vehicle: saline with Tween-80
[11] = dose: 12.5 mg/kg/injection, schedule: Q01DX009 (ip), vehicle: saline
[12] = dose: 12.5 mg/kg/injection, schedule: Q01DX009 (ip), vehicle: Klucel (hydroxypropylcellulose) (HPC)
[13] = dose: 25.0 mg/kg/injection, schedule: Q01DX009 (ip), vehicle: Klucel (hydroxypropylcellulose) (HPC)
[14] = dose: 100.0 mg/kg/injection, schedule: Q01DX009 (ip), vehicle: Klucel (hydroxypropylcellulose) (HPC)
[15] = dose: 50.0 mg/kg/injection, schedule: Q01DX009 (ip), vehicle: Klucel (hydroxypropylcellulose) (HPC)
[16] = dose: 200.0 mg/kg/injection, schedule: Q01DX009 (ip), vehicle: Klucel (hydroxypropylcellulose) (HPC)

With `O=C1N[C@@H]([C@H]2CC[C@H](Cl)CN2)C(=O)N[C@H]1[C@H]1CC[C@H](Cl)CN1` the T/C (dose: 0.25 mg/kg/injection, schedule: Q01DX005 (ip), vehicle: saline) was 99 % of control, the T/C (dose: 0.25 mg/kg/injection, schedule: Q01DX005 (iv), vehicle: saline) was 105 % of control and the T/C (dose: 0.25 mg/kg/injection, schedule: Q01DX009 (ip), vehicle: saline) was 107 % of control. The T/C (dose: 0.5 mg/kg/injection, schedule: Q01DX005 (ip), vehicle: saline) was 100 % of control, the T/C (dose: 0.5 mg/kg/injection, schedule: Q01DX005 (iv), vehicle: saline) was 95 % of control and the T/C (dose: 0.5 mg/kg/injection, schedule: Q01DX005 (oral), vehicle: saline) was 96 % of control. For the same molecule, the T/C (dose: 0.5 mg/kg/injection, schedule: Q04DX003 (ip), vehicle: saline) was 97 % of control, the T/C (dose: 1.0 mg/kg/injection, schedule: Q01DX005 (ip), vehicle: saline) was 124 % of control and the T/C (dose: 1.0 mg/kg/injection, schedule: Q01DX005 (iv), vehicle: saline) was 99 % of control. For the same molecule, the T/C (dose: 1.0 mg/kg/injection, schedule: Q01DX005 (oral), vehicle: saline) was 99 % of control, the T/C (dose: 1.0 mg/kg/injection, schedule: Q04DX003 (ip), vehicle: saline) was 103 % of control and the T/C (dose: 2.0 mg/kg/injection, schedule: Q01DX005 (iv), vehicle: saline) was 108 % of control. The T/C (dose: 2.0 mg/kg/injection, schedule: Q01DX005 (oral), vehicle: saline) was 115 % of control, the T/C (dose: 2.0 mg/kg/injection, schedule: Q04DX003 (ip), vehicle: saline) was 108 % of control and the T/C (dose: 4.0 mg/kg/injection, schedule: Q01DX005 (ip), vehicle: saline) was 183 % of control. For the same molecule, the T/C (dose: 4.0 mg/kg/injection, schedule: Q01DX005 (iv), vehicle: saline) was 120 % of control, the T/C (dose: 4.0 mg/kg/injection, schedule: Q01DX005 (oral), vehicle: saline) was 110 % of control and the T/C (dose: 4.0 mg/kg/injection, schedule: Q04DX003 (ip), vehicle: saline) was 112 % of control.
`c1csc(C[N+]23CN4CN(CN(C4)C2)C3)c1` was tested, and the T/C (dose: 12.0 mg/kg/injection, schedule: Q01DX009 (ip), vehicle: saline) was 100 % of control, the T/C [1] was 98 % of control and the T/C [2] was 98 % of control. For the same molecule, the T/C [3] was 104 % of control and the T/C [4] was 106 % of control.
With `C=C(C)C12OC3(CCCCCCCCC)OC1C1C4OC4(COC(=O)CCCCCCCCCCCCCCC)C(O)C4(O)C(=O)C(C)=CC4C1(O3)C(C)C2OC(=O)c1ccccc1` (stereo unspecified) the T/C [5] was 96 % of control, the T/C (dose: 10.0 micrograms/kg/injection, schedule: Q01DX009 (ip), vehicle: saline + alcohol) was 99 % of control and the T/C [6] was 86 % of control. The T/C (dose: 40.0 micrograms/kg/injection, schedule: Q01DX009 (ip), vehicle: saline + alcohol) was 88 % of control.
With `O=C1C2=C(C(=O)c3cnccc31)C1C=CC2CC1` (stereo unspecified) the T/C (dose: 12.5 mg/kg/injection, schedule: Q01DX009 (ip), vehicle: DMSO) was 115 % of control, the T/C (dose: 25.0 mg/kg/injection, schedule: Q01DX009 (ip), vehicle: DMSO) was 98 % of control and the T/C (dose: 50.0 mg/kg/injection, schedule: Q01DX009 (ip), vehicle: DMSO) was 111 % of control. For the same molecule, the T/C (dose: 100.0 mg/kg/injection, schedule: Q01DX009 (ip), vehicle: DMSO) was 98 % of control.
`Cc1cc2nc(Cc3nc4cc(C)c(C)cc4[nH]3)[nH]c2cc1C` was tested, and the T/C [7] was 94 % of control, the T/C [8] was 93 % of control and the T/C [9] was 88 % of control.
In the case of `O=C(Oc1cc(Cl)ccc1Cl)c1ccccc1`, the T/C [7] is reported as 96 % of control, the T/C [8] is reported as 97 % of control and the T/C [9] is reported as 91 % of control. The T/C [10] was 87 % of control.
With `N#C[C@H](OC1OC(COC2OC(CO)C(O)C(O)C2O)C(O)C(O)C1O)c1ccccc1` (stereo partly specified) the T/C (dose: 12.5 mg/kg/injection, schedule: Q01DX009 (oral), vehicle: saline) was 96 % of control, the T/C (dose: 25.0 mg/kg/injection, schedule: Q01DX009 (ip), vehicle: suspension in saline) was 98 % of control and the T/C (dose: 25.0 mg/kg/injection, schedule: Q01DX009 (oral), vehicle: saline) was 101 % of control. The T/C (dose: 50.0 mg/kg/injection, schedule: Q01DX009 (ip), vehicle: suspension in saline) was 98 % of control, the T/C (dose: 50.0 mg/kg/injection, schedule: Q01DX009 (oral), vehicle: saline) was 98 % of control (2×) and 102 % of control and the T/C (dose: 100.0 mg/kg/injection, schedule: Q01DX009 (ip), vehicle: suspension in saline) was 108 % of control. The T/C (dose: 200.0 mg/kg/injection, schedule: Q01DX009 (ip), vehicle: suspension in saline) was 121 % of control, the T/C (dose: 400.0 mg/kg/injection, schedule: Q01DX009 (ip), vehicle: suspension in saline) was 103 % of control and the T/C (dose: 800.0 mg/kg/injection, schedule: Q01DX009 (ip), vehicle: suspension in saline) was 111 % of control.
In the case of `NCCCNCCSP(=O)(O)O`, the T/C (dose: 12.5 mg/kg/injection, schedule: Q01DX009 (ip), vehicle: saline with Tween-80) is reported as 108 % of control, the T/C [11] is reported as 104 % of control and 106 % of control and the T/C (dose: 25.0 mg/kg/injection, schedule: Q01DX009 (ip), vehicle: saline with Tween-80) is reported as 97 % of control. For the same molecule, the T/C [1] was 115 % of control and 97 % of control, the T/C [7] was 105 % of control and the T/C [2] was 109 % of control and 111 % of control. For the same molecule, the T/C [8] was 108 % of control, the T/C [3] was 109 % of control and 115 % of control and the T/C [9] was 104 % of control. The T/C [4] was 121 % of control and 124 % of control.
In the case of `COc1c(CNC(=O)CCl)cc2[nH]c(C)cc2c1CNC(=O)CCl`, the T/C [12] is reported as 104 % of control, the T/C [13] is reported as 105 % of control and the T/C [14] is reported as 116 % of control.
`Oc1c(Cl)cc(C(c2cc(Cl)c(O)c(Cl)c2)C(c2cc(Cl)c(O)c(Cl)c2)c2cc(Cl)c(O)c(Cl)c2)cc1Cl` was tested, and the T/C [12] was 88 % of control and 100 % of control, the T/C [13] was 92 % of control and 99 % of control and the T/C [15] was 93 % of control and 101 % of control. The T/C [14] was 93 % of control and 101 % of control and the T/C [16] was 104 % of control.
With `CC(=O)OC(OC(C)=O)c1ccc([N+](=O)[O-])c([N+](=O)[O-])c1` the T/C [12] was 102 % of control, the T/C [13] was 99 % of control and the T/C [15] was 102 % of control.
In the case of `CCOC(=O)N1CCN(CCCCCOc2ccc(CC(C)(C)C)cc2Cl)CC1`, the T/C (dose: 3.13 mg/kg/injection, schedule: Q01DX009 (ip), vehicle: saline) is reported as 109 % of control, the T/C (dose: 6.25 mg/kg/injection, schedule: Q01DX009 (ip), vehicle: saline) is reported as 121 % of control and the T/C [11] is reported as 112 % of control. The T/C [1] was 101 % of control.
`CCN(CC)CC(=O)c1ccc(O)c(O)c1` was tested, and the T/C [8] was 92 % of control, the T/C [9] was 107 % of control and the T/C [10] was 117 % of control.
In the case of `CCCCC(NC(=O)OCc1ccccc1)C(=O)NC(Cc1c[nH]c2ccccc12)C(=O)O` (stereo unspecified), the T/C [16] is reported as 103 % of control.
`Cc1ccc2nc(-c3ccc4nc(-c5ccc(N=Nc6ccc(-c7nc8ccc(-c9nc%10ccc(C)c(S(=O)(=O)O)c%10s9)cc8s7)cc6)cc5)sc4c3)sc2c1S(=O)(=O)O` was tested, and the T/C [11] was 87 % of control, the T/C [1] was 86 % of control and the T/C [3] was 88 % of control.
With `COc1cc2cc(c1Cl)N1CC(O)C(C)(O)C(=O)NC(C)C(=O)OC(CC1=O)C1(C)OC1C(C)C1CC(O)(NC(=O)O1)C(OC)/C=C\C=C(\C)C2OC` (stereo unspecified) the T/C (dose: 2.0 micrograms/kg/injection, schedule: Q01DX009 (ip), vehicle: distilled water + alcohol) was 164 % of control and 165 % of control, the T/C (dose: 4.0 micrograms/kg/injection, schedule: Q01DX009 (ip), vehicle: distilled water + alcohol) was 170 % of control and 185 % of control and the T/C (dose: 8.0 micrograms/kg/injection, schedule: Q01DX009 (ip), vehicle: distilled water + alcohol) was 176 % of control and 195 % of control and 196 % of control. The T/C (dose: 16.0 micrograms/kg/injection, schedule: Q01DX009 (ip), vehicle: distilled water + alcohol) was 183 % of control and 197 % of control and 212 % of control.
In the case of `CCOC(=O)N(CCCCCCNC(c1ccccc1)S(=O)(=O)O)c1ccccc1` (stereo unspecified), the T/C [13] is reported as 96 % of control, the T/C [15] is reported as 100 % of control and the T/C [14] is reported as 100 % of control.
With `C=C1C(O)C2OC3(CCC(/C=C/C(C)C4CC5(C)SC5C5(OC(CC(C)(O)C(=O)O)CCC5O)O4)O3)CCC2OC1C(O)CC(C)C1OC2(CCCCO2)CCC1C` (stereo unspecified) the T/C (dose: 1.25 micrograms/kg/injection, schedule: Q01DX009 (ip), vehicle: saline + alcohol) was 104 % of control, the T/C (dose: 2.5 micrograms/kg/injection, schedule: Q01DX009 (ip), vehicle: saline + alcohol) was 111 % of control and the T/C [5] was 120 % of control. The T/C [6] was 97 % of control.
For `C[C@]12CCC(=O)C(O)=C1CC[C@@H]1[C@@H]2CC[C@]2(C)C(=O)CC[C@@H]12`, the T/C [12] was 88 % of control and 95 % of control, the T/C [13] was 97 % of control and the T/C [15] was 97 % of control and 102 % of control. For the same molecule, the T/C [14] was 92 % of control and 98 % of control, the T/C [16] was 94 % of control and 95 % of control and the T/C (dose: 400.0 mg/kg/injection, schedule: Q01DX009 (ip), vehicle: Klucel (hydroxypropylcellulose) (HPC)) was 87 % of control and 93 % of control.
